Reference: patent US9888679B2, “Protection of progenitor cells and regulation of their differentiation” (Proteobioactives Pty Ltd, priority 2007, dated 2018)

Key:
[1] = system: Primary human progenitor cells; experiment: Differentiation in osteogenic media: mineralisation assay; type: cell-based; settings: for differentiation into osteoblasts/osteocytes: osteogenic media, particularly at 1 and 10 micrograms PPS/mL, FIG. 7
Experimental: FIG. 7. The Effects of Pentosan Polysulfate (PPS) on Human progenitor cell Differentiation: Mineralisation Assay. Primary human progenitor cells were cultured in 96 wells plates in non-osteoinductive growth media (media control) or in osteoinductive conditions (alphaMEM supplemented with 10% FCS, 100 microM L-ascorbate-2-phosphate, dexamethasone 10^−7 M and 3 mM inorganic phosphate) in the presence of PPS at the indicated concentrations. On day 28, the concentration of acid solubilisd calcium per well was determined using the Cresolphthalein Complexone method. (A) The concentration of acid solubilised calcium per microg of DNA/well was determined following the assessment of the total amount of DNA per well using a fluorogenic DNA stain (Hoeshst 33258). […] (B) Phase-contrast photomicrographs of mineralised cultures at ×20 magnification.
The conditions necessary for the induction of human progenitor cells to develop mineralised bone matrix in vitro have been previously described (Gronthos S, A C Zannettino, S J Hay, S Shi, S E Graves, A Kortesidis and P J Simmons. (2003). Molecular and cellular characterisation of highly purified stromal stem cells derived from human bone marrow. J Cell Sci 116:1827-1835). The osteoinductive media consists of alpha-MEM media supplemented with 2% (v/v) FCS, 1.8 mM KH2PO4, 10-7 dexamethasone sodium phosphate, 50 IU/ml penicillin, 50 μg/mL streptomycin, 1 mM Sodium Pyruvate, 100 μM L-Ascorbic acid 2-phosphate, 2 mM L-glutamine and 10 mM HEPES buffer. […]
Total mineral content per well in the above cultures was assessed by measuring the calcium levels per total DNA in each well. […] The acid-solubilzed mineral 23 was transferred to a new 96-well plate and reacted with o-cresol-phthalein-complexone (Thermal Electron Corporation, USA) to form a purple dye that was measured at 570 nm using an EL 808 Ultra Microplate Reader. […] Absolute absorbance was determined by measuring against a series of DNA standards at 350 nm by LS55 Luminescence Spectrometer (Perkin Elmer).

[2] = system: Primary human progenitor cells; experiment: Progenitor cell proliferation, WST-1 assay; type: cell-based; settings: FIG. 4
Experimental: (§1) FIG. 4. The Effects of Pentosan Polysulfate (PPS) on Human Progenitor cell Proliferation. Primary human progenitor cells were cultured in 24 well plates in growth media supplemented with PPS at the indicated concentrations. At various time intervals (day 1, 3, 6), the growth media was removed and replaced with phenol red free media containing the tetrazolium salt WST-1 for 2 hours at 37° C./5% CO2. WST-1 is cleaved by mitochondrial dehydrogenase in viable cells to produce a formazan dye that can be detected using an ELISA plate reader at a wavelength of 450 nm. Absorbance at 450 nm for each time point is shown for all concentrations of PPS.
FIG. 20. […] At various time intervals (day 3 & 5), the growth media was removed and replaced with phenol red free media containing the tetrazolium salt WST-1 for 2 hours at 37° C./5% CO2. Absorbance at 450 nm for each time point is shown for all concentrations of PPS and HA.
as §1, with “Primary” for “FIG. 4. The Effects of Pentosan Polysulfate (PPS) on Human Progenitor cell Proliferation. Primary”

Type II collagen = experiment: Gene expression in 6-day pellet culture (RT-PCR); type: cell-based, murine; settings: ATDC5 cells; 6 days in pellet culture; FIG. 13
Experimental: FIG. 13. Gene Expression by ATDC5 cells of Type II collagen and Sox-9 in 6-day pellet culture incubated with various concentrations of PPS in Maintenance Medium (MM).
Total RNA was isolated from Progenitor cells according to the manufacturer's instructions for the Aurum total RNA mini kit (Bio-Rad, USA). The RNA was reverse transcribed with RevertAid™ H Minus First Stand cDNA Synthesis Kit (Fermentas, USA). PCR products were transferred to an agarose gel, and visualized by ethidium bromide staining, and integrated densities calculated using Scion image analysis software, normalized to the house-keeping gene Glyceraldehydes-3-phosphate dehydrogenase (GAPDH) to permit semi-quantitative comparisons in mRNA levels. (L. Marchuk, P. Sciore, C. Reno, C. B. Frank, D. A. Hart. Postmortem stability of total RNA isolated from rabbit ligament, tendon and cartilage, Biochim Biophys Acta. 1379 (1998) 171-177. R. Boykiw, P. Sciore, C. Reno, L. Marchuk, C. B. Frank, D. A. Hart. Altered levels of extracellular matrix molecule mRNA in healing rabbit ligaments, Matrix Biol. 17 (1998) 371-378.)

pentosan polysulfate [PPS]
differentiation into osteoblasts/osteocytes [1]: suppressed differentiation into osteocytes
differentiation into osteoblasts/osteocytes ([1]; listed as polysulfated polysaccharides): suppress differentiation of progenitor cells to this cell phenotype
calcified deposits in cultures (photomicrographs) ([1]; osteoinductive conditions, FIG. 7B): no calcified deposits are present
cell division (WST-1 cleavage assay) ([2]; 1-5 micrograms/mL, monolayer): Marked stimulation of cell division
proliferation (WST-1, absorbance at 450 nm) ([2]; day 6, PPS in excess of 1 μg/ml, p<0.01, ANOVA): statistically significant increase in proliferation
type II collagen expression (Type II collagen): up-regulated in a concentration dependent manner
